What all share (test): stopped-flow CO2 hydration assay
Common to all, as to type: biochemical

One assay addresses T1, hCA IV (Homo sapiens, UniProt P22748).
T1 construct: gene CA4; recombinant, obtained in-house
From the text:
stopped-flow CO2 hydration assay on hCA IV

A further assay addresses T2, hCA I (Homo sapiens, UniProt P00915).
T2 construct: gene CA1; recombinant, obtained in-house; cytosolic
From the text:
stopped-flow CO2 hydration assay on hCA I

The target in another assay is T3, hCA II (Homo sapiens, UniProt P00918).
T3 construct: gene CA2; recombinant, obtained in-house; cytosolic
From the text: stopped-flow CO2 hydration assay on hCA II

T1 sequence (P22748 19-284): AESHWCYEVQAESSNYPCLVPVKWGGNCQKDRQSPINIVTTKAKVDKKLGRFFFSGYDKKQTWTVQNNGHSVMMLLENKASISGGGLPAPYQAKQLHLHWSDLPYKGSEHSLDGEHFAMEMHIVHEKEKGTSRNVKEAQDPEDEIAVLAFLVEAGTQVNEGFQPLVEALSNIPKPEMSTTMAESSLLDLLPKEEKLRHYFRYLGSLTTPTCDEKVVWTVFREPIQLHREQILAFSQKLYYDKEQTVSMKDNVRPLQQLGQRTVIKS
T2 sequence (P00915 2-261): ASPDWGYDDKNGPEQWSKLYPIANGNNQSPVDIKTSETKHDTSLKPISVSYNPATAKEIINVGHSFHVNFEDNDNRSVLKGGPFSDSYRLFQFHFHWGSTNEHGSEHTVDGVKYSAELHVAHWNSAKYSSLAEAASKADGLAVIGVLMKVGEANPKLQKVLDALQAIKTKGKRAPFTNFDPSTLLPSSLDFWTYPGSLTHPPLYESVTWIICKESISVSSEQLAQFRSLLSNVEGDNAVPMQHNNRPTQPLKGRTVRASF

As for `NS(=O)(=O)Nc1ccccc1S(=O)(=O)NCCC(=O)N1CCN(C(c2ccccc2)c2ccccc2)CC1` [6a, N-(3-(4-Benzhydrylpiperazin-1-yl)-3-oxopropyl)-2-(sulfamoylamino)benzenesulfonamide], the values for the inhibitory constant (Ki) on hCA IV, at hCA I and at hCA II were 151 nM, 286 nM and 473 nM, respectively.
As for `NS(=O)(=O)Nc1cccc(S(=O)(=O)NCCC(=O)N2CCN(C(c3ccccc3)c3ccccc3)CC2)c1` [6b, N-(3-(4-Benzhydrylpiperazin-1-yl)-3-oxopropyl)-3-(sulfamoylamino)benzenesulfonamide], the inhibition constant Ki worked out at 2360 nM on hCA IV, 83.1 nM at hCA I and 419 nM at hCA II.
In the same order, the values of `NS(=O)(=O)Nc1ccc(S(=O)(=O)NCCC(=O)N2CCN(C(c3ccccc3)c3ccccc3)CC2)cc1` [6c, N-(3-(4-Benzhydrylpiperazin-1-yl)-3-oxopropyl)-4-(sulfamoylamino)benzenesulfonamide] are 124 nM, 75.4 nM and 439 nM.
In the same order, the values of `NS(=O)(=O)Nc1ccccc1S(=O)(=O)NCCC(=O)N1CCN(C(c2ccc(F)cc2)c2ccc(F)cc2)CC1` [6d, N-(3-(4-(bis(4-Fluorophenyl)methyl)piperazin-1-yl)-3-oxopropyl)-2(sulfamoylamino)benzenesulfonamide] are 117 nM, 660 nM and 189 nM.
For `NS(=O)(=O)Nc1cccc(S(=O)(=O)NCCC(=O)N2CCN(C(c3ccc(F)cc3)c3ccc(F)cc3)CC2)c1` [6e, N-(3-(4-(bis(4-Fluorophenyl)methyl)piperazin-1-yl)-3-oxopropyl)-3(sulfamoylamino)benzenesulfonamide] the same measures were 423 nM, 94 nM and 165 nM.
In the case of `NS(=O)(=O)Nc1ccc(S(=O)(=O)NCCC(=O)N2CCN(C(c3ccc(F)cc3)c3ccc(F)cc3)CC2)cc1` [6f, N-(3-(4-(bis(4-Fluorophenyl)methyl)piperazin-1-yl)-3-oxopropyl)-4-(sulfamoylamino)benzenesulfonamide], the values for the Ki on hCA IV, on hCA I and on hCA II were 202 nM, 63.2 nM and 406 nM, respectively.
For `NS(=O)(=O)Nc1ccccc1S(=O)(=O)N1CCCC(C(=O)N2CCN(C(c3ccccc3)c3ccccc3)CC2)C1` (stereo not drawn) [6g, (1-((2-Sulfamoylaminophenyl)sulfonyl)piperidin-3-yl)(4-benzhydrylpiperazin-1-yl)methanone] the same measures were 314 nM, 605 nM and 89.8 nM.
In the same order, the values of `NS(=O)(=O)Nc1cccc(S(=O)(=O)N2CCCC(C(=O)N3CCN(C(c4ccccc4)c4ccccc4)CC3)C2)c1` (stereo not drawn) [6h, 4(1-((3-Sulfamoylaminophenyl)sulfonyl)piperidin-3-yl)(4-benzhydrylpiperazin-1-yl)methanone] are 1620 nM, 71.4 nM and 911 nM.
In the same order, the values of `NS(=O)(=O)Nc1ccc(S(=O)(=O)N2CCCC(C(=O)N3CCN(C(c4ccccc4)c4ccccc4)CC3)C2)cc1` (stereo not drawn) [6i, (1-((4-Sulfamoylaminophenyl)sulfonyl)piperidin-3-yl)(4-benzhydrylpiperazin-1-yl)methanone] are 364 nM, 153 nM and 455 nM.
On to `NS(=O)(=O)Nc1ccccc1S(=O)(=O)N1CCCC(C(=O)N2CCN(C(c3ccc(F)cc3)c3ccc(F)cc3)CC2)C1` (stereo not drawn) [6j, (1-((2-Sulfamoylaminophenyl)sulfonyl)piperidin-3-yl)(4-(bis(4-fluorophenyl)methyl)piperazin-1-yl)methanone], for which the Ki at hCA IV is 1500 nM; at hCA I, 2750 nM; on hCA II, 6460 nM.
In the same order, the values of `NS(=O)(=O)Nc1cccc(S(=O)(=O)N2CCCC(C(=O)N3CCN(C(c4ccc(F)cc4)c4ccc(F)cc4)CC3)C2)c1` (stereo not drawn) [6k, (1-((3-Sulfamoylaminophenyl)sulfonyl)piperidin-3-yl)(4-(bis(4-fluorophenyl)methyl)piperazin-1-yl)methanone] are 1380 nM, 45.8 nM and 753 nM.
In the same order, the values of `NS(=O)(=O)Nc1ccc(S(=O)(=O)N2CCCC(C(=O)N3CCN(C(c4ccc(F)cc4)c4ccc(F)cc4)CC3)C2)cc1` (stereo not drawn) [6l, (1-((4-Sulfamoylaminophenyl)sulfonyl)piperidin-3-yl)(4-(bis(4-fluorophenyl)methyl)piperazin-1-yl)methanone] are 467 nM, 326 nM and 786 nM.
